Laboratory results published in US4590193A, “3-(2-(4-phenylpiperazinylethyl)anilino)-isobenzofuranones, their method of preparation and their use as antihypertensive and antiallergic drugs” (Societe Cortial, S.A., priority 1982, dated 1986).

Assays:
[1] = Oral toxicity (mortality), intragastric administration; conditions: mouse, in vivo, read-out: percentage of mortality
Description: (§1) The mortality induced by these substances was determined by using Swiss mice which were free of specific pathogenic organisms. The animals were kept in an air conditioned room for 24 to 48 hours prior to the beginning of the experiments. The substances were solubilized in Tween and administered either intragastrically or intraperitoneally.

[2] = Intraperitoneal toxicity (mortality, LD50); conditions: mouse, in vivo, ip; for mortality: read-out: percentage of mortality; for LD50: Bliss method
Description: as §1

[3] = molecular target: T1, contractions induced by histamine on a guinea pig ileum (Cavia porcellus, UniProt P31389); assay: In vitro antihistamine activity: inhibition of histamine-induced contractions of guinea pig ileum; format: cell-based; conditions: for Kb: competitive antagonism of histamine, read-out: pA2 (converted); for IC50: histamine 10^-8 g/l
T1 construct: on a guinea pig ileum; from tissue; host or cells: isolated guinea pig ileum
Description: The antagonist is administered at the same time as the agonist or before. In the latter case, the time of contact between the antagonist and the organ isolated before the introduction of the agonist is shown in Table III.

[4] = system: contractions induced by serotonin on an isolated guinea pig ileum; assay: In vitro antiserotonin activity: inhibition of serotonin-induced contractions of isolated guinea pig ileum; format: cell-based; conditions: Cavia porcellus, serotonin 5.10^-7 g/ml
[5] = system: bronchospasm induced by a 0.3% histamine aerosol; assay: In vivo antihistamine activity: bronchospasm induced by histamine aerosol in awake guinea pig; conditions: 10 mg/kg oral in Tween
Description: The in vivo antihistamine activity is determined in the awake guinea pig by testing the bronchospasm induced by a 0.3% histamine aerosol. The antihistaminic activity of the present products is tested upon their oral administration in Tween.

[6] = system: cutaneous passive anaphylaxis; assay: Antiallergic activity: cutaneous passive anaphylaxis; format: in vivo, Sprague Dawley rats; conditions: po; per os, rat, reduction of Evans blue diffused
Description: The antiallergic activity has been determined in Sprague Dawley rats by the test for cutaneous passive anaphylaxis. Anaphylaxis is induced by the intradermal administration of a serum rich in IgE, followed 24 hours later by the intravenous injection of a solution containing ovalbumin and Evans blue. The activity of the products to be tested, administered per os, is estimated as the percentage of reduction in the amount of Evans blue having diffused at the injection point. Table VI provides the ED50 expressed in mg/kg of certain products of this invention.

[7] = system: cutaneous reactions induced by histamine; assay: Cutaneous reactions induced by histamine; format: in vivo, rats; conditions: oral, rat
Description: (§2) The products of this invention were administered orally to rats in the model of the cutaneous reactions. These reactions were induced by intradermal administration of histamine, serotonin, or the 48/80 compound. The activity of these products is expressed as the percentage of reduction in the amount of blue dye having diffused at the injection point, and the obtained values for ED50 expressed in mg/kg are given in Table VI.

[8] = system: cutaneous reactions induced by serotonin; assay: Cutaneous reactions induced by serotonin; format: in vivo, rats; conditions: oral, rat
Description: as §2

[9] = system: cutaneous reactions induced by the 48/80 compound; assay: Cutaneous reactions induced by 48/80 compound; format: in vivo, rats; conditions: oral, rat
Description: as §2

motility = assay: Effect on motility in mice (actimeter), sedative; format: in vivo; conditions: Mus musculus, oral, read-out: ED50 as a sedative (motility)
Description: (§3) When administered orally to spontaneously hypertensive rats at a rate of 50 mg/kg every 12 hours for five days, COR 34 41 causes a drop in the AP. The AP becomes stable at the end of the treatment, at a value of about 18 mm Hg below its initial value. The effect on motility when giving the present substances orally to mice, was tested by using an actimeter.

[10] = system: spontaneously hypertensive awake rat; assay: Antihypertensive activity in spontaneously hypertensive awake rat, oral; format: in vivo
Description: In the spontaneously hypertensive awake rat the compound COR 34 41 causes a drop in AP of 18.8% at 25 mg/kg per os, and it causes a drop in AP of 19.3% at 50 mg/kg. The AP returns to normal at the end of an hour, at a dosage of 25 mg/kg, and at the end of 5 hours with a dosage of 50 mg/kg.
The compound COR 34 42 causes a AP drop of 15.6% at a dose of 50 mg/kg per os. The AP returns to normal at the end of 5 hours.

[11] = system: spontaneously hypertensive rats; assay: Antihypertensive activity in spontaneously hypertensive rats, repeated oral administration; format: in vivo, rat; conditions: 50 mg/kg orally every 12 hours for five days
Description: as §3

Swiss mice = conditions: 14 days of observation; 20 wt. % "Tween" solution; range of lethal doses 946-1459; cited from earlier work
[12] = no time of contact printed (antagonist given at the same time as agonist)

T1 sequence (P31389 whole entry): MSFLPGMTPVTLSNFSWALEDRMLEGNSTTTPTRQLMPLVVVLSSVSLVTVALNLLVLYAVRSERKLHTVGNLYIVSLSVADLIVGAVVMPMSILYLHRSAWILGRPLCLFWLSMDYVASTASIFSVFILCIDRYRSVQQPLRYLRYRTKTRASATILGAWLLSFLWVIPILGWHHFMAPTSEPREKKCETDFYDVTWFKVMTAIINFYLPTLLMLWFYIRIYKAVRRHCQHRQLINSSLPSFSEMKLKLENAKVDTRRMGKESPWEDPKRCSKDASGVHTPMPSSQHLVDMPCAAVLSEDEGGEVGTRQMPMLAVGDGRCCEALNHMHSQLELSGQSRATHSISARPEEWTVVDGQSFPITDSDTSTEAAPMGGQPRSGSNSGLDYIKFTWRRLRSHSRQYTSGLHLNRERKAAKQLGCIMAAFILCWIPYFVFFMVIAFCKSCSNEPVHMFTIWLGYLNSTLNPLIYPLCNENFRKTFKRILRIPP

Compound | mortality ([1]; 1000 mg/kg) [%] | mortality ([1]; 2000 mg/kg) [%] | mortality ([2]; 500 mg/kg) [%] | Kb [3] [nM] | % of animals protected at 1 h [5] [%] | % of animals protected at 6 h [5] [%] | ED50 [6] [mg/kg] | ED50 [7] [mg/kg] | ED50 [8] [mg/kg] | ED50 [9] [mg/kg] | ED50 (motility) [mg/kg] | mortality ([2]; 1000 mg/kg) [%] | also measured
O=C1OC(Nc2ccccc2CCN2CCN(c3ccccc3)CC2)c2ccccc21 (stereo not drawn) [COR 34 30, 3-(2-(4-phenylpiperazinylethyl)anilino)-isobenzofuranone] | 0 | 0 | 0 | 20.4 | 60 | 40 | 3.8 | 12.1 | 13.2 | 11.2 | ~50 |  | mortality ([1]; 3000 mg/kg): 10%; mortality ([2]; 100 mg/kg): 0%; mortality ([2]; 200 mg/kg): 10%; mortality ([2]; 300 mg/kg): 0%; IC50 [3, 12]: 1040 nM; IC50 ([4]; time of contact 5 mm): 9330 nM
O=C1OC(Nc2ccccc2CCN2CCN(c3ccc(F)cc3)CC2)c2ccccc21 (stereo not drawn) [COR 34 37, 3-(2-(4-fluorophenylpiperazinylethyl)anilino)isobenzofuranone] | 10 | 50 | 20 | 13.8 | 70 | 70 | 6.4 | 9.3 | 7.9 | 9.4 |  | 60 | mortality ([1]; 750 mg/kg): 0%; IC50 ([3]; time of contact 3 mm): 15.5 nM; IC50 ([4]; time of contact 5 mm): 22700 nM
COc1ccccc1N1CCN(CCc2ccccc2NC2OC(=O)c3ccccc32)CC1 (stereo not drawn) [COR 34 41] | 10 | 10 | 25 | 9.33 | 90 | 60 | 4.1 | 7.9 | 14 | 10.9 |  | 70 | mortality ([1]; 750 mg/kg): 0%; mortality ([2]; 400 mg/kg): 0%; mortality ([2]; 800 mg/kg): 35%; mortality ([2]; 900 mg/kg): 50%; LD50 [2]: 873 mg/kg; IC50 ([3]; time of contact 10 mm): 31.1 nM; IC50 ([4]; time of contact 15 mm): 12600 nM; AP returns to normal at the end of ([10]; 25 mg/kg per os): an hour; drop in AP ([10]; 25 mg/kg per os): 18.8%; AP returns to normal at the end of ([10]; 50 mg/kg per os): 5 h; drop in AP ([10]; 50 mg/kg per os): 19.3%; AP below its initial value at the end of the treatment [11]: about 18 mm Hg
COc1ccc2c(c1OC)C(=O)OC2Nc1ccccc1CCN1CCN(c2ccc(Cl)cc2)CC1 (stereo not drawn) [COR 34 42, 3-(2-(4-p-chlorophenylpiperazinylethyl)-aniline)-6,7-dimethoxyisobenzofuranone] | 0 | 0 |  |  |  |  | 14.8 |  |  |  | 10 |  | IC50 ([3]; time of contact 5 mm): 33 nM; AP returns to normal at the end of ([10]; 50 mg/kg per os): 5 h; drop in AP ([10]; 50 mg/kg per os): 15.6%
COc1ccc2c(c1OC)C(=O)OC2Nc1ccccc1CCN1CCN(c2ccc(F)cc2)CC1 (stereo not drawn) [COR 34 43, 6,7-dimethoxy-3-(2-(4-p-fluorophenylpiperazinylethyl)-anilino)isobenzofuranone] | 0 | 0 | 0 | 10.7 | 90 | 50 | 6.6 | 9.1 | 17.1 | 11.1 |  | 0 | mortality ([2]; 800 mg/kg): 0%; IC50 [3, 12]: 3530 nM; IC50 ([4]; time of contact 3 mm): 20500 nM
COc1ccc2c(c1OC)C(=O)OC2Nc1ccccc1CCN1CCN(c2ccccc2)CC1 (stereo not drawn) [COR 34 47, 6,7-dimethoxy-3-(2-(4-phenylpiperazinylethyl)anilino)isobenzofuranone] | 0 | 0 | 0 |  | 20 | 0 |  |  |  |  |  | 0 | IC50 ([3]; time of contact 3 mm): 29 nM; IC50 ([4]; time of contact 3 mm): 19700 nM
COc1ccc2c(c1OC)C(=O)OC2Nc1ccccc1CCN1CCN(c2ccccc2C)CC1 (stereo not drawn) [COR 34 48] | 0 | 0 | 0 |  | 40 | 10 |  |  |  |  | 9 | 0 | IC50 ([3]; time of contact 5 mm): 55 nM; IC50 ([4]; time of contact 5 mm): 6460 nM
Cc1ccccc1N1CCN(CCc2ccccc2NC2OC(=O)c3ccccc32)CC1 (stereo not drawn) [COR 34 49, 3-(2-(4-(2-methylphenyl)piperazinylethyl)-aniline)isobenzofuranone] | 0 | 0 | 0 |  | 30 | 20 |  |  |  |  | 18 | 20 | IC50 ([3]; time of contact 10 mm): 80 nM
COc1ccc(N2CCN(CCc3ccccc3NC3OC(=O)c4ccccc43)CC2)cc1 (stereo not drawn) [COR 34 53, 3-(2-(4-methoxyphenylpiperazinylethyl)anilino)isobenzofuranone] | 0 | 20 | 60 |  |  |  |  |  |  |  |  | 100 | LD50 [2]: 500 mg/kg; IC50 ([3]; time of contact 5 mm): ~1500 nM
CC(CN1c2ccccc2Sc2ccccc21)N(C)C (stereo not drawn) [Promethazine, reference compound] |  |  |  |  |  |  |  |  |  |  |  |  | IC50 ([4]; time of contact 3 mm): 444 nM
Nc1ccccc1CCN1CCN(c2ccccc2)CC1 [product of Example 1, 2-(4-phenylpiperazinylethyl)aniline] |  |  |  |  |  |  |  |  |  |  |  |  | LD50 (Swiss mice): 1175 mg/kg
